From patent publication US20250034147A1, “MDM2 DEGRADERS AND USES THEREOF” (Kymera Therapeutics, Inc., priority 2021, published 2025)
pIC50: −log10 of the molar value.

Legend:
RS411 cells = experiment: Cell Viability CTG Assay; assay type: cell-based; details: Homo sapiens, RS4-11, CellTiter Glo (CTG) cell viability, read-out: Average external-IC50
Method: Compounds or DMSO 60 nL were stamped to the cell plate as the platemap. RS411 cells were centrifuged at 800 rpm for 5 min, suspended with culture medium, and counted with Countess (Invitrogen). The cell density was adjusted to the recommend information. 30 μL of cell solution (1000 cells/well) was added to the assay plate as the platemap and 30 μL of media was added to column 2 and column 23 as the platemap. The plate was spun down briefly. The final concentration of the compounds started at 10 μM (3 fold dilution and 11 doses) and final DMSO concentration was 0.2%. The plate was spun down briefly and incubated at 37° C., 5% CO2 for 1 day. […] 30 μL CellTiter Glo reagent was added to each well and the plate was centrifuged at 1000 rpm for 30 sec. The plate was shaken for 1 min and centrifuged at 1000 rpm for 30 sec. The plate was incubated at RT for 10 min to stabilize the luminescent signal and the luminescence was read by EnVision.
The letter codes for IC50 indicate the concentration of compound required to affect 50% of cells: A (<0.005 μM), B (0.005-0.05 μM), C (0.05-0.5 μM), and D (>0.5 μM).

HiBiT-tagged MDM2 = molecular target: T1, HiBiT-tagged MDM2 (Homo sapiens, UniProt Q00987); experiment: MDM2 HiBit HEK293T degradation; assay type: cell-based; details: HEK293T cells stably expressing C-terminally HiBiT-tagged MDM2; 4 h; read-out: MDM2 HiBit HEK293T degradation 4 h: Average external-Abs DC50
T1 construct: expressed in transfected cells
Procedure, shortened: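 Degradation was measured in HEK293T cells stably expressing C-terminally HiBiT-tagged MDM2, a pool selected with 1 microgram/ml puromycin. A MDM2 tool degrader and HaloPROTAC3 served as positive controls. Potency is reported as DC50 in letter bins.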

T1 sequence (Q00987 whole entry): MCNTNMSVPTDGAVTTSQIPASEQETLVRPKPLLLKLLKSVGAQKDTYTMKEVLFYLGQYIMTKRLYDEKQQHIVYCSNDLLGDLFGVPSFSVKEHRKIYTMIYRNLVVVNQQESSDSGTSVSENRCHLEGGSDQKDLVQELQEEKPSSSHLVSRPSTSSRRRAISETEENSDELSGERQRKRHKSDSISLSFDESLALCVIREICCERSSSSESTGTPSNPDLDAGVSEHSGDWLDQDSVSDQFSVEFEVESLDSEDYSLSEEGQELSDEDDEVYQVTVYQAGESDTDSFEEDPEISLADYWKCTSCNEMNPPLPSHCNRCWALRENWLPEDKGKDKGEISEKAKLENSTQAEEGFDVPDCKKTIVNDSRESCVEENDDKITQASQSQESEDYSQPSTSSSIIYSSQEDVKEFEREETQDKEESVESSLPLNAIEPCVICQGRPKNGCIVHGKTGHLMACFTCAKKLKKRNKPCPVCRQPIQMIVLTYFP

Compound	pIC50 (RS411 cells)	DC50 (HiBiT-tagged MDM2) [nM]
Cn1c(=O)n(C2CCC(=O)NC2=O)c2ccc(CCCC3(C(=O)O)CCN(C[C@H]4CC[C@H](NC(=O)[C@@H]5NC6(CCCCC6)[C@@]6(C(=O)Nc7cc(Cl)ccc76)[C@H]5c5cccc(Cl)c5F)CC4)CC3)cc21 (some centres unmarked) [I-38]	7.30 to 8.30	< 10
Cn1c(=O)n(C2CCC(=O)NC2=O)c2ccc(C3CCN(CCCN4CCC(NC(=O)[C@@H]5NC6(CCCCC6)[C@@]6(C(=O)Nc7cc(Cl)ccc76)[C@H]5c5cccc(Cl)c5F)CC4)CC3)cc21 (some centres unmarked) [I-39]	7.30 to 8.30	< 10
O=C1CCC(n2c(=O)n(CCP(=O)(O)O)c3cc(C4CCN(C(=O)[C@H]5CC[C@H](NC(=O)[C@@H]6NC7(CCCCC7)[C@@]7(C(=O)Nc8cc(Cl)ccc87)[C@H]6c6cccc(Cl)c6F)CC5)CC4)ccc32)C(=O)N1 (some centres unmarked) [I-40]	6.30 to 7.30	10 to 100
Cn1c(=O)n(C2CCC(=O)NC2=O)c2ccc(CCN3CCN(C(=O)[C@@H]4CC[C@@H](NC(=O)[C@@H]5NC6(CCCCC6)[C@@]6(C(=O)Nc7cc(Cl)ccc76)[C@H]5c5cccc(Cl)c5F)CO4)CC3)cc21 (some centres unmarked) [I-41]	> 8.30	< 10
O=C1CCN(c2cnc3cc(C4CCN(C(=O)[C@H]5CC[C@H](NC(=O)[C@@H]6NC7(CCCCC7)[C@@]7(C(=O)Nc8cc(Cl)ccc87)[C@H]6c6cccc(Cl)c6F)CC5)CC4)ccn23)C(=O)N1 [I-42]	> 8.30	< 10
CN1[C@@H](C(=O)N[C@H]2CC[C@H](CN3CCC4(CC3)CN(CCc3ccc5c(c3)n(C)c(=O)n5C3CCC(=O)NC3=O)C4)CC2)[C@H](c2ccnc(Cl)c2F)[C@]2(C(=O)Nc3cc(Cl)ccc32)C12CCC(C)(C)CC2 (some centres unmarked) [I-43]	> 8.30	< 10
Cn1c(=O)n(C2CCC(=O)NC2=O)c2ccc(C#CCC3(C(=O)O)CCN(C(=O)[C@H]4CC[C@H](NC(=O)[C@@H]5NC6(CCCCC6)[C@@]6(C(=O)Nc7cc(Cl)ccc76)[C@H]5c5cccc(Cl)c5F)CC4)CC3)cc21 (some centres unmarked) [I-44]	> 8.30	10 to 100
O=C1CCN(c2cnc3c(C4CCN(C(=O)[C@H]5CC[C@H](NC(=O)[C@@H]6NC7(CCCCC7)[C@@]7(C(=O)Nc8cc(Cl)ccc87)[C@H]6c6cccc(Cl)c6F)CC5)CC4)cccn23)C(=O)N1 [I-45]	7.30 to 8.30	< 10
Cn1c(=O)n(C2CCC(=O)NC2=O)c2ccc(C#CC3CCN(C[C@H]4CC[C@H](NC(=O)[C@@H]5NC6(CCCCC6)[C@@]6(C(=O)Nc7cc(Cl)ccc76)[C@H]5c5cccc(Cl)c5F)CC4)C(=O)C3)cc21 (some centres unmarked) [I-46]	7.30 to 8.30	< 10
Cn1c(=O)n(C2CCC(=O)NC2=O)c2ccc(CN3CC(OC4CCN(C[C@H]5CC[C@H](NC(=O)[C@@H]6NC7(CCCCC7)[C@@]7(C(=O)Nc8cc(Cl)ccc87)[C@H]6c6cccc(Cl)c6F)CC5)CC4)C3)cc21 (stereo partly drawn) [I-47, (3′R,4′S,5′S)-6″-chloro-4′-(3-chloro-2-fluorophenyl)-N-((1r,4S)-4-((4-((1-((1-(2,6-dioxopiperidin-3-yl)-3-methyl-2-oxo-2,3-dihydro-1H-benzo[d]imidazol-5-yl)methyl)azetidin-3-yl)oxy)piperidin-1-yl)methyl)cyclohexyl)-2″-oxodispiro[cyclohexane-1,2′-pyrrolidine-3′,3″-indoline]-5′-carboxamide]	> 8.30	< 10
COc1cc2c(cc1OC(C)C)[C@H](c1ccc(Cl)cc1)N(c1ccc(N(C)CC(=O)N3CCN(CCCCCCc4ccc5c(c4)n(C)c(=O)n5C4CCC(=O)NC4=O)CC3)cc1)C(=O)C2 (some centres unmarked) [I-48]	< 6.30	> 1000
Cn1c(=O)n(C2CCC(=O)NC2=O)c2ccc(CN3CCC(OC4CN(C[C@H]5CC[C@H](NC(=O)[C@@H]6NC7(CCCCC7)[C@@]7(C(=O)Nc8cc(Cl)ccc87)[C@H]6c6cccc(Cl)c6F)CC5)C4)CC3)cc21 (some centres unmarked) [I-49]	7.30 to 8.30	< 10
CC1(C)CCC2(CC1)NC(C(=O)NC1CCC(CN3CCN(CC#Cc4ccn5c(N6CCC(=O)NC6=O)cnc5c4)CC3)CC1)[C@H](c1ccnc(Cl)c1F)[C@]21C(=O)Nc2cc(Cl)ccc21 (some centres unmarked) [I-50]	7.30 to 8.30	< 10
COc1cc2c(cc1OC(C)C)[C@H](c1ccc(Cl)cc1)N(c1ccc(N(C)CCC3CCN(CCCCC#Cc4ccn5c(N6CCC(=O)NC6=O)cnc5c4)CC3)cc1)C(=O)C2 [I-51]	6.30 to 7.30	10 to 100
Cn1c(=O)n(C2CCC(=O)NC2=O)c2ccc(C3CCN(C[C@H]4CC[C@H](NC(=O)[C@@H]5NC6(CCCCC6)[C@@]6(C(=O)Nc7cc(Cl)ccc76)[C@H]5c5cccc(Cl)c5F)CC4)CC3(F)F)cc21 (some centres unmarked) [I-52]	> 8.30	< 10
COc1cc2c(cc1OC(C)C)[C@H](c1ccc(Cl)cc1)N(c1ccc(N(C)CC3CCN(CCCc4ccc5c(c4)n(C)c(=O)n5C4CCC(=O)NC4=O)CC3)cc1)C(=O)C2 (some centres unmarked) [I-53]	> 8.30	10 to 100

Compound	pIC50 (RS411 cells)	DC50 (HiBiT-tagged MDM2) [nM]
Cn1c(=O)n(C2CCC(=O)NC2=O)c2ccc(CCCN3CCN(C[C@H]4CC[C@H](NC(=O)[C@@H]5NC6(CCCCC6)[C@@]6(C(=O)Nc7cc(Cl)ccc76)[C@H]5c5cccc(Cl)c5F)CC4)C(=O)C3)cc21 (some centres unmarked) [I-54]	7.30 to 8.30	< 10
Cc1ccc2c(c1)NC(=O)[C@]21[C@@H](c2cccc(C)c2F)[C@H](C(=O)N[C@H]2CC[C@H](C(=O)N3CCN(CCCc4ccc5c(c4)n(C)c(=O)n5C4CCC(=O)NC4=O)CC3)CC2)NC12CCCCC2 (some centres unmarked) [I-55]	< 6.30	10 to 100
Cn1c(=O)n(C2CCC(=O)NC2=O)c2ccc(CCCN3CCN(C[C@H]4CC[C@H](NC(=O)[C@@H]5NC6(CCC(C)(C)CC6)[C@@]6(C(=O)Nc7cc(Cl)ccc76)[C@H]5c5ccnc(Cl)c5F)CC4)C(=O)C3)cc21 (some centres unmarked) [I-56]	> 8.30	< 10
Cc1ccc2c(c1)NC(=O)[C@]21[C@@H](c2cccc(Cl)c2F)[C@H](C(=O)N[C@H]2CC[C@H](C(=O)N3CCN(CCCc4ccc5c(c4)n(C)c(=O)n5C4CCC(=O)NC4=O)CC3)CC2)NC12CCCCC2 (some centres unmarked) [I-57]	> 8.30	< 10
Cn1c(=O)n(C2CCC(=O)NC2=O)c2ccc(C(=O)N3CC(OC4CN(C[C@H]5CC[C@H](NC(=O)[C@@H]6NC7(CCCCC7)[C@@]7(C(=O)Nc8cc(Cl)ccc87)[C@H]6c6cccc(Cl)c6F)CC5)C4)C3)cc21 (some centres unmarked) [I-58]	7.30 to 8.30	< 10
Cn1c(=O)n(C2CCC(=O)NC2=O)c2ccc(CN3CC(OC4CN(C[C@H]5CC[C@H](NC(=O)[C@@H]6NC7(CCCCC7)[C@@]7(C(=O)Nc8cc(Cl)ccc87)[C@H]6c6cccc(Cl)c6F)CC5)C4)C3)cc21 (some centres unmarked) [I-59]	7.30 to 8.30	< 10
COc1cc2c(cc1OC(C)C)[C@H](c1ccc(Cl)cc1)N(c1ccc(N(C)C[C@H]3CC[C@H](N4CCN(Cc5ccc6c(c5)n(C)c(=O)n6C5CCC(=O)NC5=O)CC4)CC3)cc1)C(=O)C2 (some centres unmarked) [I-60]	> 8.30	< 10
COc1cc2c(cc1OC(C)C)C(c1ccc(Cl)cc1)N(C1CCC(N(C)CC3CCN(CCCCCCc4ccc5c(c4)n(C)c(=O)n5C4CCC(=O)NC4=O)CC3)CC1)C(=O)C2 (centres unmarked) [I-61]	< 6.30	> 1000
COc1cc2c(cc1OC(C)C)[C@H](c1ccc(Cl)cc1)N(c1ccc(N(C)CC3CCN(c4ccc5c(c4)n(C)c(=O)n5C4CCC(=O)NC4=O)CC3)cc1)C(=O)C2 (some centres unmarked) [I-62]	7.30 to 8.30	< 10
COc1cc2c(cc1OC(C)C)[C@H](c1ccc(Cl)cc1)N(c1ccc(N(C)C[C@H]3CC[C@H](N4CCN(CCc5cccc6c5n(C)c(=O)n6C5CCC(=O)NC5=O)CC4)CC3)cc1)C(=O)C2 (some centres unmarked) [I-63]	7.30 to 8.30	< 10
CC(C)[C@@H](CS(=O)(=O)C(C)C)N1C(=O)[C@@](C)(CC(=O)N[C@H]2CC[C@H](CN3CCN(CCCc4ccc5c(c4)n(C)c(=O)n5C4CCC(=O)NC4=O)CC3)CC2)C[C@H](c2cccc(Cl)c2)[C@H]1c1ccc(Cl)cc1 (some centres unmarked) [I-64]	7.30 to 8.30	10 to 100
COc1cc2c(cc1OC(C)C)[C@H](c1ccc(Cl)cc1)N(c1ccc(N(C)C[C@H]3CC[C@H](N4C[C@@H]5C[C@H]4CN5CCc4ccc5c(c4)n(C)c(=O)n5C4CCC(=O)NC4=O)CC3)cc1)C(=O)C2 (some centres unmarked) [I-65]	7.30 to 8.30	10 to 100
CC1(C)CCC2(CC1)N[C@@H](C(=O)N[C@H]1CC[C@H](CN3CCN(CCCc4cccn5c(N6CCC(=O)NC6=O)cnc45)CC3)CC1)[C@H](c1ccnc(Cl)c1F)[C@]21C(=O)Nc2cc(Cl)ccc21 [I-67]	7.30 to 8.30	< 10
Cn1c(=O)n(C2CCC(=O)NC2=O)c2ccc(CN3CCN(C[C@H]4CC[C@H](NC(=O)[C@@H]5NC6(CCCCC6)[C@@]6(C(=O)Nc7cc(Cl)ccc76)[C@H]5c5cccc(Cl)c5F)CC4)CC3)cc21 (some centres unmarked) [I-69]	7.30 to 8.30	< 10
Cn1c(=O)n(C2CCC(=O)NC2=O)c2ccc(N3CCN(CC4CCN(C[C@H]5CC[C@H](NC(=O)[C@@H]6NC7(CCCCC7)[C@@]7(C(=O)Nc8cc(Cl)ccc87)[C@H]6c6cccc(Cl)c6F)CC5)CC4)CC3)cc21 (some centres unmarked) [I-70]	> 8.30	< 10
